{"source": "paper PMC12645437", "about": "“Orthogonal IMiD-Degron Pairs Induce Selective Protein Degradation in Cells” (ACS Chemical Biology, 2025)", "key": {"Jurkat cells": {"system": "Jurkat cells", "assay": "TMTpro quantitative proteomics, 16 h", "settings": "for Scaled value (to 150), replicate 01 / Scaled value (to 150), replicate 02 / Scaled value (to 150), replicate 03: Jurkat whole cell extracts, TMTpro SPS-MS3"}, "[1]": {"system": "library of 8380 IKZF3 degrons fused to EGFP in Jurkat cells", "assay": "Pooled mutant ZF degron library screen (FACS EGFPlow vs EGFP+, NGS), 18 h;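 for logFC: Log2 fold change of EGFPlow over EGFP+ representation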", "assay_type": "cell-based, human", "settings": "for Log2FC: WT degron, residues 146/147/149/150/152/153/154/155/167: FQNQGASFL"}, "[2]": {"settings": "protein AADAT isoform 2 (Q8N5Z0-2)"}}}
{"molecule": "O=C1CCC(N2C(=O)c3ccccc3C2=O)C(=O)N1", "note": "(stereo not shown) [Compound 1, thalidomide, reference compound]", "values": [{"measurement": "Scaled value (to 150), replicate 01", "setting": "Jurkat cells; protein A2M (P01023)", "value": 8.46}, {"measurement": "Scaled value (to 150), replicate 02", "setting": "Jurkat cells; protein A2M (P01023)", "value": 13.549}, {"measurement": "Scaled value (to 150), replicate 03", "setting": "Jurkat cells; protein A2M (P01023)", "value": 7.506}, {"measurement": "Scaled value (to 150), replicate 01", "setting": "Jurkat cells; protein AAAS (Q9NRG9)", "value": 10.0487}, {"measurement": "Scaled value (to 150), replicate 02", "setting": "Jurkat cells; protein AAAS (Q9NRG9)", "value": 9.769}, {"measurement": "Scaled value (to 150), replicate 03", "setting": "Jurkat cells; protein AAAS (Q9NRG9)", "value": 10.5105}, {"measurement": "Scaled value (to 150), replicate 01", "setting": "Jurkat cells; protein AACS (Q86V21)", "value": 10.2228}, {"measurement": "Scaled value (to 150), replicate 02", "setting": "Jurkat cells; protein AACS (Q86V21)", "value": 10.5542}, {"measurement": "Scaled value (to 150), replicate 03", "setting": "Jurkat cells; protein AACS (Q86V21)", "value": 9.811}, {"measurement": "Scaled value (to 150), replicate 01", "setting": "Jurkat cells; [2]", "value": 9.84}, {"measurement": "Scaled value (to 150), replicate 02", "setting": "Jurkat cells; [2]", "value": 10.2362}, {"measurement": "Scaled value (to 150), replicate 03", "setting": "Jurkat cells; [2]", "value": 11.2082}, {"measurement": "proteins degraded (quantitative proteomics)", "setting": "Jurkat cells; Jurkat, 10 μM, 16 h, 9644 quantified proteins", "value": "did not induce major protein degradation"}, {"measurement": "Log2FC", "setting": "[1]; listed as Thal", "value": 1.13}, {"measurement": "Log2FC", "setting": "[1]; listed as Thalidomide", "value": 1.1337}, {"measurement": "logFC", "setting": "[1]; degron residues 146/147/149/150/152/153/154/155/167: FADIGAAFL", "value": -0.52}, {"measurement": "logFC", "setting": "[1]; degron residues 146/147/149/150/152/153/154/155/167: FADIGAAFL, listed as A32", "value": -0.5175}, {"measurement": "logFC", "setting": "[1]; degron residues 146/147/149/150/152/153/154/155/167: FADIGACFL", "value": -1.27}, {"measurement": "logFC", "setting": "[1]; degron residues 146/147/149/150/152/153/154/155/167: FADIGACFL, listed as A32", "value": -1.269}, {"measurement": "logFC", "setting": "[1]; degron residues 146/147/149/150/152/153/154/155/167: FADIGADFL", "value": -2.30}, {"measurement": "logFC", "setting": "[1]; degron residues 146/147/149/150/152/153/154/155/167: FADIGADFL, listed as A32", "value": -2.302}, {"measurement": "logFC", "setting": "[1]; degron residues 146/147/149/150/152/153/154/155/167: FADIGAEFL", "value": -1.72}, {"measurement": "logFC", "setting": "[1]; degron residues 146/147/149/150/152/153/154/155/167: FADIGAEFL, listed as A32", "value": -1.72}, {"measurement": "logFC", "setting": "[1]; degron residues 146/147/149/150/152/153/154/155/167: FADIGAFFL", "value": -2.34}, {"measurement": "logFC", "setting": "[1]; degron residues 146/147/149/150/152/153/154/155/167: FADIGAGFL", "value": -1.45}, {"measurement": "logFC", "setting": "[1]; degron residues 146/147/149/150/152/153/154/155/167: FADIGAHFL", "value": -1.89}, {"measurement": "logFC", "setting": "[1]; degron residues 146/147/149/150/152/153/154/155/167: FADIGAIFL", "value": -1.38}, {"measurement": "logFC", "setting": "[1]; degron residues 146/147/149/150/152/153/154/155/167: FADIGAKFL", "value": -0.77}, {"measurement": "logFC", "setting": "[1]; degron residues 146/147/149/150/152/153/154/155/167: FADIGALFL", "value": -1.99}, {"measurement": "logFC", "setting": "[1]; degron residues 146/147/149/150/152/153/154/155/167: FADIGAMFL", "value": -1.81}, {"measurement": "logFC", "setting": "[1]; degron residues 146/147/149/150/152/153/154/155/167: FADIGANFL", "value": -1.52}, {"measurement": "logFC", "setting": "[1]; degron residues 146/147/149/150/152/153/154/155/167: FADIGAPFL", "value": 0.38}, {"measurement": "logFC", "setting": "[1]; degron residues 146/147/149/150/152/153/154/155/167: FADIGAQFL", "value": -1.14}, {"measurement": "logFC", "setting": "[1]; degron residues 146/147/149/150/152/153/154/155/167: FADIGARFL", "value": -0.98}, {"measurement": "logFC", "setting": "[1]; degron residues 146/147/149/150/152/153/154/155/167: FADIGASFL", "value": -1.01}, {"measurement": "logFC", "setting": "[1]; degron residues 146/147/149/150/152/153/154/155/167: FADIGATFL", "value": -1.50}, {"measurement": "logFC", "setting": "[1]; degron residues 146/147/149/150/152/153/154/155/167: FADIGAVFL", "value": -1.28}, {"measurement": "logFC", "setting": "[1]; degron residues 146/147/149/150/152/153/154/155/167: FADIGAWFL", "value": -2.70}, {"measurement": "logFC", "setting": "[1]; degron residues 146/147/149/150/152/153/154/155/167: FADIGAYFL", "value": -1.46}, {"measurement": "logFC", "setting": "[1]; degron residues 146/147/149/150/152/153/154/155/167: FADQGAAFL", "value": -3.14}, {"measurement": "logFC", "setting": "[1]; degron residues 146/147/149/150/152/153/154/155/167: FADQGACFL", "value": -2.81}, {"measurement": "logFC", "setting": "[1]; degron residues 146/147/149/150/152/153/154/155/167: FADQGADFL", "value": -2.96}, {"measurement": "logFC", "setting": "[1]; degron residues 146/147/149/150/152/153/154/155/167: FADQGAEFL", "value": -3.47}, {"measurement": "logFC", "setting": "[1]; degron residues 146/147/149/150/152/153/154/155/167: FADQGAFFL", "value": -3.47}, {"measurement": "logFC", "setting": "[1]; degron residues 146/147/149/150/152/153/154/155/167: FADQGAGFL", "value": -2.45}, {"measurement": "logFC", "setting": "[1]; degron residues 146/147/149/150/152/153/154/155/167: FADQGAHFL", "value": -3.40}, {"measurement": "logFC", "setting": "[1]; degron residues 146/147/149/150/152/153/154/155/167: FADQGAIFL", "value": -2.61}, {"measurement": "logFC", "setting": "[1]; degron residues 146/147/149/150/152/153/154/155/167: FADQGAKFL", "value": -2.20}, {"measurement": "logFC", "setting": "[1]; degron residues 146/147/149/150/152/153/154/155/167: FADQGALFL", "value": -2.67}, {"measurement": "logFC", "setting": "[1]; degron residues 146/147/149/150/152/153/154/155/167: FADQGAMFL", "value": -2.56}, {"measurement": "logFC", "setting": "[1]; degron residues 146/147/149/150/152/153/154/155/167: FADQGANFL", "value": -3.17}, {"measurement": "logFC", "setting": "[1]; degron residues 146/147/149/150/152/153/154/155/167: FADQGAPFL", "value": -2.41}]}
